Reference: patent publication US11639355B2, “Substituted pyrrolo[3,4-d]imidazoles as MDM2-p53 inhibitors” (LUOXIN PHARMACEUTICAL (SHANGHAI) CO., LTD., priority 2018, dated 2023)
Read-outs that look alike come from different tables or passages of the source.

How the values were obtained:
[1] = reported data; cited from earlier work
[2] = Pharmacokinetic study in mice, tail vein injection and oral cassette dosing; assay type: in vivo; conditions: mouse, plasma, female Balb/c mice
Procedure: The purposes of the present disclosure are to study the pharmacokinetic behaviors of the compounds of the present disclosure in mice and to evaluate the pharmacokinetic characteristics thereof.
Healthy juvenile female Balb/c mice by weight of 20-30 g, 6 in total.
There were 6 female Balb/c mice, with after fasting overnight 3 mice administered a dose of 0.5 mg/kg via tail vein injection; the other 3 mice administered orally a dose of 2 mg/kg.
Blood was collected before administration and 0.08, 0.25, 0.5, 1, 2, 4, 8, and 24 hours after administration, placed in a heparinized anticoagulation tube, and centrifuged at 7000 rpm (5204 g) at 4° C., and the plasma was separated and stored at −80° C. 4 hours after administration, the mice were fed.
The LC/MS/MS method was used to determine the content of the compounds to be tested in mouse plasma after iv and oral administration. Plasma samples were analyzed after pretreatment of protein precipitation.

MV4-11 tumor cells = assay: Efficacy in mice with subcutaneously transplanted MV4-11 acute myeloid leukemia tumor; assay type: in vivo; conditions: 6 mg/kg oral once a day
Procedure: 0.2 mL (10×10^6 cells, containing 50% Matrigel) of MV4-11 tumor cells were inoculated subcutaneously on the right back of each mouse to form a transplanted tumor; when the volume reached 100-200 mm^3, the animals were randomly grouped according to the tumor volume, with 8 in the negative control group, 8 in the positive control group, and 8 in the experimental group. […] The length (A) and width (B) of the tumor were measured with a vernier caliper twice a week, thereby calculating the tumor volume V=A×B^2/2. The calculation of relative tumor volume (RTV) follows: RTV=Vt/V0, where Vt is the tumor volume at the end of the administration, and V0 is the tumor volume measured before division into different cages for administration. The pharmacodynamic evaluation index of the anti-tumor activity is the relative tumor proliferation ratio T/C (%), and the calculation formula is: T/C (%)=TRTV/CRTV×100%. Where TRTV is the RTV of the treatment group; CRTV is the RTV of the negative control group. Efficacy evaluation criteria: T/C %>60% is invalid; T/C %≤60% and P<0.05 upon statistical treatment is valid.
CVt is the tumor volume of the control group at the end of the administration; CV0 is the tumor volume of the control group before division into different cages for administration; TVt is the tumor volume of the dosing group at the end of the administration; TV0 is the tumor volume of the dosing group before division into different cages for administration. The difference in tumor volumes between the dosing group and the control group was subjected to t-test. At the same time, the nude mice of each group were weighed twice a week to preliminarily evaluate the side effects of the drugs.

[3] = Two-way permeability evaluation in Caco-2 cells; assay type: in vitro ADME; conditions: human; for recovery at 2.5 h, 2 μM: Caco-2, pH 7.4, Caco-2
Procedure: Experiment purpose: To determine the permeability of the test compounds in Caco-2 cells
Experiment operation: Human colon cancer Caco-2 cells were inoculated on a 96-well Insert cell plate at a density of 1×10^5 cells/cm^2, and cultured for 4-5 days to form confluent monolayer cells. The test compounds was diluted with an HBSS buffer (pH 7.4) to a concentration of 2 μM, added to the top or basolateral side of the cells, and incubated at 37° C., 5% CO2 and saturated humidity for 2.5 hours, and then the sample solutions in the donor wells and receiver wells were taken and immediately mixed with a cold acetonitrile solution containing an internal standard. In addition, the cells were lysed with the cold acetonitrile solution containing the internal standard to measure the accumulation amount of intracellular compounds. The LC/MS/MS method was used to analyze the concentrations of the compounds to be tested in all samples (including an initial dosing solution, supernatant of the donor wells, receiver solution, and cell lysate). The concentrations of the test compounds were expressed by the ratio of the peak area thereof to the peak area of the internal standard to detect the permeability of the compounds from directions of A→B and B→A.

[4] = system: P-glycoprotein (MDR1), human; assay: Two-way permeability evaluation in MDR1-MDCK cells; assay type: in vitro ADME; conditions: dog, MDR1-MDCK
Description: (§1) Experiment purpose: To determine the permeability of the test compounds in MDR1-MDCK cells
(§2) Experiment operation: MDR1-MDCK cells that permanently express human P-glycoprotein were inoculated on a 96-well Insert cell plate, and cultured for 4-7 days to form confluent monolayer cells. […] In addition, the cells were lysed with the cold acetonitrile solution containing the internal standard to measure the accumulation amount of intracellular compounds. The LC/MS/MS method was used to analyze the concentrations of the compounds to be tested in all samples (including an initial dosing solution, supernatant of the donor wells, receiver solution, and cell lysate). The concentrations of the test compounds were expressed by the ratio of the peak area thereof to the peak area of the internal standard to detect the permeability of the compounds from directions of A→B and B→A.

P-glycoprotein (MDR1) = assay: Two-way permeability evaluation in MDR1-MDCK cells; assay type: in vitro ADME; conditions: dog, MDCK-MDR1, pH 7.4, MDR1-MDCK
Description: as §1, §2

[5] = reported data; cited from earlier work; remark: listed apart in the source
[6] = read-out: Average recovery rate A→B
[7] = read-out: Average recovery rate B→A
[8] = Caco-2, 2 μM, pH 7.4, 2.5 hours

COc1ncc(-c2nc3c(n2C(C)C)[C@H](c2ccc(Cl)cc2)N(c2cc(Cl)cn(C)c2=O)C3=O)c(OC)n1 [NVP-HDM201]
drug plasma exposure [1]: low
half-life in mice [1]: short
half-life ([2]; 0.5 mg/kg, intravenous injection 0.5 mpk, read-out: Half-life T1/2 (converted)): 42.6 min
bioavailability ([2]; 2 mg/kg, iv 0.5 mpk, oral 2 mpk, read-out: Oral bioavailability F): 39.6%
AUC(0-t) ([2]; 2 mg/kg, oral administration 2 mpk, read-out: Oral exposure AUC0-t): 1.32 µM·h
RTV (21 days) (MV4-11 tumor cells): 4.68 ± 0.69
T/C (MV4-11 tumor cells; 21 days): 73.58%
TGI (MV4-11 tumor cells; 21 days): 36.91%
Tumor volume (Day 0) (MV4-11 tumor cells; Day 0, before administration): 153 ± 20 mm^3
Tumor volume (Day 21) (MV4-11 tumor cells; Day 21): 695 ± 115 mm^3
efflux ratio at 2.5 h, 2 μM ([3]; Caco-2, pH 7.4): 198
recovery at 2.5 h, 2 μM [3, 6]: 94.3%
recovery at 2.5 h, 2 μM [3, 7]: 88.3%
Papp A→B at 2.5 h, 2 μM [3, 8]: 0.17 ×10⁻⁶ cm/s
Papp B→A at 2.5 h, 2 μM [3, 8]: 34.3 ×10⁻⁶ cm/s
efflux ratio at 2.5 h, 2 μM ([4]; pH 7.4): 20.3
Papp A→B at 2.5 h, 2 μM ([4]; 2 μM, pH 7.4, 2.5 hours): 0.91 ×10⁻⁶ cm/s
Papp B→A at 2.5 h, 2 μM ([4]; 2 μM, pH 7.4, 2.5 hours): 18.4 ×10⁻⁶ cm/s
recovery at 2.5 h, 2 μM (P-glycoprotein (MDR1); [6]): 38%
recovery at 2.5 h, 2 μM (P-glycoprotein (MDR1); [7]): 50%
stability in mouse liver microsomes [5]: poor
